Measured values published in patent US11795169B2, “MAP4K4 inhibitors” (IMPERIAL COLLEGE INNOVATIONS LIMITED, priority 2017, dated 2023).
pEC50, pIC50: −log10 of the molar value.

Experiments:
[1] = biological target: human MAP4K4 kinase domain (Homo sapiens (Human), UniProt O95819); experiment: MAP4K4 kinase activity, CisBio HTRF Transcreener ADP assay; type: biochemical; details: ATP at Km (10 μM), 0.5 nM kinase domain, 2 h; read-out: MAP4K4
Source text: Compounds of the present invention were screened for their inhibitory activity against MAP4K4, versus selected off-target hits found with early members of this chemical series. MAP4K4 kinase activity was monitored using the CisBio HTRF Transcreener ADP assay, acompetitive immunoassay with a reproducible Z′>0.6. In the detection step, endogenous ADP and d2-labeled ADP compete for binding an anti-ADP monoclonal antibody labelled with Eu^3+ cryptate. A ratiometric fluorescent read-out is used at 665 and 620 nm. […] Assays were run in Greiner low volume plates with a final reaction volume of 10 μl. The MAP4K4 inhibition data are provided in Table 33 below for selected compounds of the present invention. The data has been categorised based on the IC50 value of the compound as “A”, “B” or “C”.

[2] = tested on: CorV.4U cardiomyocytes (hiPSC-CMs); experiment: Protection of CorV.4U cardiomyocytes from H2O2 or menadione (luminescent cell viability assay, human cardiac troponin assay); type: cell-based; details: Homo sapiens, Cardiomyocyte; read-out: EC50, protection of human cardiomyocytes
Source text: To substantiate the hypothesis that pharmacological inhibition of MAP4K4 would confer resistance to cell death in human cardiomyocytes, cytoprotection was next assessed using hiPSC-CMs.

Sequence of human MAP4K4 kinase domain (O95819 25-289): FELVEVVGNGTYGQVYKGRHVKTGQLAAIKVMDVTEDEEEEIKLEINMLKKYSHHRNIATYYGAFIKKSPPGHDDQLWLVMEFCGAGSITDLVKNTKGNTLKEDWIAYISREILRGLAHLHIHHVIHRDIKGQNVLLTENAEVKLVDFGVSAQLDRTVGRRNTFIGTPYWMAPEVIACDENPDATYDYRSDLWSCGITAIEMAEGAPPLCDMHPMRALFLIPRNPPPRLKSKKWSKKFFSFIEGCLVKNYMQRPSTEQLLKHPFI

Row | SMILES | pIC50 [1] | pEC50 [2]
1 | N#Cc1ccc(-c2cn(-c3ccccc3)c3nc[nH]c(=O)c23)cc1 [Ex-11, 4-(4-oxo-7-phenyl-4,7-dihydro-3H-pyrrolo[2,3-d]pyrimidin-5-yl)-benzonitrile] | ≥ 7.00 | 
2 | CC(C)(O)CCOc1ccc(-c2cn(-c3ccccc3)c3nc[nH]c(=O)c23)cc1C#N [Ex-128] |  | > 6.00
3 | CNC(=O)c1ccc(-n2cc(-c3ccccc3)c3c(=O)[nH]cnc32)cc1 [Ex-5, N-Methyl-4-(4-oxo-5-phenyl-3,4-dihydro-pyrrolo[2,3-d]pyrimidin-7-yl)-benzamide] | < 6.00 | 
4 | CN1CCN(CC(O)COc2ccc(-c3cn(-c4ccccc4)c4nc[nH]c(=O)c34)cc2)CC1 (stereo not shown) [Ex-48] | ≥ 7.00 | 
5 | O=c1[nH]cnc2c1c(-c1ccccc1Cl)cn2-c1ccccc1 [Ex-30] | 6.00 to 7.00 | 
6 | O=C(CO)Nc1ccc(-c2cn(-c3ccccc3)c3nc[nH]c(=O)c23)cc1 [Ex-14] | ≥ 7.00 | 

Continued, in another order:

Row | pIC50 [1] | SMILES | pEC50 [2]
7 | 6.00 to 7.00 | CC(C)(C)OC(=O)NCCOc1ccc(-c2cn(-c3ccccc3)c3nc[nH]c(=O)c23)cc1 [Ex-63] | 
8 | ≥ 7.00 | NC(=O)Cc1ccc(-c2cn(-c3ccccc3)c3nc[nH]c(=O)c23)cc1 [Ex-83, 2-[4-(4-Oxo-7-phenyl-4,7-dihydro-3H-pyrrolo[2,3-d]pyrimidin-5-yl)-phenyl]-acetamide] | 
9 | < 6.00 | CN1CCC(COc2ccc(-c3cn(-c4ccccc4)c4c(=O)[nH]cnc34)cc2)C1 (stereo not shown) [Ex-95, 7-[4-(1-Methyl-pyrrolidin-3-ylmethoxy)-phenyl]-5-phenyl-3,5-dihydro-pyrrolo[3,2-d]pyrimidin-4-one] | 
10 | 6.00 to 7.00 | O=c1[nH]cnc2c(-c3ccc(OCC(O)CO)cc3)cn(-c3ccccc3)c12 (stereo not shown) [Ex-88, 7-[4-(2,3-Dihydroxypropoxy)-phenyl]-5-phenyl-3,5-dihydropyrrolo[3,2-d]pyrimidin-4-one] | 
11 | 6.00 to 7.00 | CC(=O)NCc1cccc(-c2cn(-c3ccccc3)c3nc[nH]c(=O)c23)c1 [Ex-71, N-[3-(4-Oxo-7-phenyl-4,7-dihydro-3H-pyrrolo[2,3-d]pyrimidin-5-yl)-benzyl]-acetamide] | 
12 | < 6.00 | O=C(O)c1cccc(-c2cn(-c3ccccc3)c3c(=O)[nH]cnc23)c1 [Ex-101, 3-(4-Oxo-5-phenyl-4,5-dihydro-3H-pyrrolo[3,2-d]pyrimidin-7-yl)-benzoic acid] | 
13 | ≥ 7.00 | C[C@@H](O)COc1ccc(-c2cn(-c3ccccc3)c3nc[nH]c(=O)c23)cc1 [Ex-52] | 
